Laboratory results as given in the NIST ThermoML archive (doi:10.1021/je700512a).
Numbers after ± are expanded uncertainties.

Conditions: Liquid, Ebulliometric method (Recirculating still)

| SMILES | vapor or sublimation pressure (288.15 K) [kPa] | vapor or sublimation pressure (298.15 K) [kPa] | vapor or sublimation pressure (308.15 K) [kPa] |
| --- | --- | --- | --- |
| C1COCCO1 [1,4-dioxane] | 2.703 ± 0.053 | 4.975 ± 0.061 | 8.119 ± 0.068 |
| O [water] | 1.706 ± 0.04 | 3.172 ± 0.047 | 5.556 ± 0.055 |
